The values that follow come from patent US11452758B2, “Antimicrobial peptide derived from LL37 peptide and uses thereof” (INDUSTRY-ACADEMIC COOPERATION FOUNDATION, CHOSUN UNIVERSITY, priority 2018, dated 2022).

The structures appear in SMILES notation. Converted amounts (≈) assume the structure as drawn. Where a SMILES comes first, the peptide text is derived from it.

In test [1] the test system is S. aureus ATCC 25923. Type of test: cell-based, Staphylococcus aureus. Particulars: ATCC 25923, 18 h. An excerpt:
(§1) To compare the antimicrobial activity among the peptides produced by the method of Example 1, the inventors of the present invention measured the minimal growth inhibitory concentration (MIC), which is minimum concentration of the peptide not allowing any […] of bacterial cells.
(§2) Specifically, the bacterial strains described in the following Table 2 were purchased and cultured to a mid-log phase in MHB (Mueller Hinton Broth) medium. Then, after dilution to bacterial cell concentration of 2×10^5 cells/50 μl, the cells were inoculated to a microtiter plate (NUNC, USA). Thereafter, LL37-1, LL37-2, LL37-3 or LL37-4 peptide which has been synthesized in Example 1 above was subjected to serial dilution, ½ times for each, in a 96-well plate. After adding the peptides in an amount of 50 μl to the cell plate, the cells were cultured for 18 hours at 37° C. By using a microtiter plate reader (Merck Elisa reader, Germany), the absorbance was measured at a wavelength of 600 nm to determine the MIC value of each bacterial strain. As a control group, LL37 as a mother peptide was used and subjected to the same process as above to determine the MIC value of each strain.

The test system of test [2] is L. monocytogenes KCTC 3710. It is filed as cell-based, Listeria monocytogenes. To be noted: KCTC 3710, 18 h.
Source text: as §1, §2

Test [3] deals with E. coli ATCC 25922. It is filed as cell-based, Escherichia coli. Particulars: ATCC 25922, 18 h.
Source text: as §1, §2

Test [4] deals with P. aeruginosa ATCC 27853. Type of test: cell-based, Pseudomonas aeruginosa. Particulars: ATCC 27853, 18 h.
Source text: as §1, §2

Test [5] deals with A. baumannii #10. Put plainly: Antibiofilm activity, Crystal violet staining. Type of test: cell-based, Acinetobacter baumannii. To be noted: 24 hours. On the procedure:
(§3) To compare the antimicrobial activity among the peptides produced by the method of Example 1, the inventors of the present invention measured the biofilm inhibitory concentration value of the peptide for not allowing any dissociation of bacterial cells.
(§4) Specifically, among the bacterial strains described in the above Table 2, bacteria showing the most favorable biofilm forming were cultured to a mid-log phase in a medium with suitable composition. Then, after dilution to bacterial cell concentration of 1×10^6 cells/50 μl, the cells were inoculated to a microtiter plate. Thereafter, LL37, LL37-1, LL37-2, LL37-3 or LL37-4 peptide which has been synthesized in Example 1 above was diluted, 1/10 times for each, with 10 mM phosphate buffered physiological saline (PBS) in a 96-well plate. After adding the peptide (50 μl) to each well of the plate, the cells were cultured for 24 hours at 37° C. After removing the supernatant completely, the cells were fixed with 100% methanol for 15 minutes and stained for 1 hour with Crystal violet staining solution followed by rinsing for 3 times. Then, after dissolving in 95% ethanol, the absorbance was measured at a wavelength of 595 nm by using a microtiter plate reader to determine the biofilm minimal inhibitory concentration value of each bacterial strain.

Test [6] has as its system A. baumannii #5. Put plainly: Antibiofilm activity, Crystal violet staining. It is filed as cell-based, Acinetobacter baumannii. To be noted: 24 hours. On the procedure: as §3, §4
Test [7] concerns A. baumannii KCTC 2508. Briefly: Antibiofilm activity, Crystal violet staining. It is filed as cell-based, Acinetobacter baumannii. Particulars: 24 hours. On the procedure:
as §3, §4

In test [8] the test system is Acinetobacter baumannii KCTC 2508. It is filed as cell-based. Particulars: for antimicrobial activity after reaction with trypsin: peptide 100 μg/ml with 10.7 nM trypsin, 10 minutes at 37° C., A. baumannii KCTC 2508. On the procedure: To determine the activity of the peptides, which have been prepared by the method of Example 1, in the presence of trypsin as one type of proteases, peptide stability against protease was determined by radial diffusion assay.
Specifically, among the bacterial strains that are described in the above Table 2, Acinetobacter baumannii KCTC 2508 cells were cultured to a mid-log phase in MHB medium, and, after diluting the cells to a cell concentration of 2×10^5 cells/10 ml, the cells were admixed with agarose which has been adjusted to final concentration of 1% and then evenly spread and solidified on a Petri dish. After that, the peptide adjusted to a concentration of 100 μg/ml was admixed with 10.7 nM trypsin and reacted for 10 minutes at 37° C. After applying a paper disk (diameter: 6 mm) on the solidified Petri dish, the peptide obtained after the reaction with trypsin was aliquoted thereto in an amount of 25 μl. After culture for 18 hours at 37° C., diameter of the clear zone around the paper disk was measured so that the level of antimicrobial activity for Acinetobacter baumannii KCTC 2508 was determined.

The test system is the same in test [9]. Put plainly: Flow cytometry after PI staining (bacteria membrane). Type of test: cell-based. To be noted: peptide at concentration of MIC, 30 minutes at 37° C. On the procedure: To determine whether or not the peptides prepared by the method of Example 1 have any effect on bacteria membrane, an analysis was made by flow cytometry.
After that, the supernatant was removed by centrifuge (10,000 rpm) and stained with propidium iodide (PI, concentration of 10 μg/ml) for 30 minutes at 4° C. Thereafter, unbound propidium iodide was removed by centrifuge, and the problem of cell aggregation phenomenon was solved by adding physiological saline (PBS) in an amount of 1 ml.
A general note: Flow cytometry measures light scatter and fluorescence of single cells or particles in a stream.

For the compound `CC[C@H](C)[C@H](NC(=O)[C@H](CCCNC(=N)N)NC(=O)[C@H](CCC(N)=O)NC(=O)[C@@H](NC(=O)[C@@H](NC(=O)[C@H](CCCNC(=N)N)NC(=O)[C@H](CCCCN)NC(=O)[C@H](Cc1ccccc1)NC(=O)[C@H](CCCCN)NC(=O)[C@@H](N)CCCCN)[C@@H](C)CC)C(C)C)C(=O)N[C@@H](CCCCN)C(=O)N[C@@H](CCCCN)C(=O)N[C@@H](Cc1ccccc1)C(=O)N[C@@H](CC(C)C)C(=O)N[C@@H](CCCNC(=N)N)C(=O)N[C@@H](CC(N)=O)C(N)=O` [LL37-4, KKFKRIVQRIKKFLRN-NH2] (H-KKFKRIVQRIKKFLRN-NH2; N-terminus assumed), the Minimal inhibitory concentration in test [1] was found to be 2 µM (≈ 4.2 µg/mL); in test [2] it was 16 µM (≈ 33.6 µg/mL); in test [3] it was 16 µM (≈ 33.6 µg/mL); in test [4], 4 µM (≈ 8.41 µg/mL). Also, the Biofilm forming ability worked out at 49% in [5] (peptide 2 μM); 37% in test [5] (peptide 4 μM); 33% in test [5] (peptide 8 μM); 33% in test [5] (peptide 16 μM); 30% in test [5] (peptide 32 μM); 74% in [6] (peptide 2 μM). Moreover, the Biofilm forming ability in test [6] (peptide 4 μM) is given as 59%; in test [6] (peptide 8 μM), 49%; in test [6] (peptide 16 μM), 22%; in [6] (peptide 32 μM), 20%; in test [7] (peptide 2 μM) it was 48%; in test [7] (peptide 4 μM), 32%. The Biofilm forming ability in test [7] (peptide 8 μM) was 28%; in test [7] (peptide 16 μM), 23%; in [7] (peptide 32 μM), 22%. Also, in test [8] (KCTC 2508, 18 h), the “decrease in clear zone compared to no treatment with trypsin” value was 1.75 mm. In test [8], the “antimicrobial activity after reaction with trypsin” value is reported as “showed the antimicrobial activity”. Also, the “effect on bacteria membrane (PI fluorescence, flow cytometry)” value (“effect on bacteria membrane” for short) in [9] is “bacteria membrane was damaged”.

Turning to `CC[C@H](C)[C@H](NC(=O)[C@H](CCCCN)NC(=O)[C@H](CCC(=O)O)NC(=O)[C@H](CCCCN)NC(=O)[C@H](CO)NC(=O)[C@H](CCCCN)NC(=O)[C@H](CCCNC(=N)N)NC(=O)[C@H](Cc1ccccc1)NC(=O)[C@H](Cc1ccccc1)NC(=O)[C@H](CC(=O)O)NC(=O)CNC(=O)[C@H](CC(C)C)NC(=O)[C@@H](N)CC(C)C)C(=O)NCC(=O)N[C@@H](CCCCN)C(=O)N[C@@H](CCC(=O)O)C(=O)N[C@@H](Cc1ccccc1)C(=O)N[C@@H](CCCCN)C(=O)N[C@@H](CCCNC(=N)N)C(=O)N[C@H](C(=O)N[C@H](C(=O)N[C@@H](CCC(N)=O)C(=O)N[C@@H](CCCNC(=N)N)C(=O)N[C@H](C(=O)N[C@@H](CCCCN)C(=O)N[C@@H](CC(=O)O)C(=O)N[C@@H](Cc1ccccc1)C(=O)N[C@@H](CC(C)C)C(=O)N[C@@H](CCCNC(=N)N)C(=O)N[C@@H](CC(N)=O)C(=O)N[C@@H](CC(C)C)C(=O)N[C@H](C(=O)N1CCC[C@H]1C(=O)N[C@@H](CCCNC(=N)N)C(=O)N[C@H](C(=O)N[C@@H](CCC(=O)O)C(=O)N[C@@H](CO)C(N)=O)[C@@H](C)O)C(C)C)[C@@H](C)CC)C(C)C)[C@@H](C)CC` [LL37], the Minimal inhibitory concentration in [1] amounted to 16 µM (≈ 71.9 µg/mL); in test [2], 64 µM (≈ 288 µg/mL); in test [3], 32 µM (≈ 144 µg/mL); in test [4] it was 8 µM (≈ 35.9 µg/mL). In addition, the Biofilm forming ability in test [5] (peptide 2 μM) came out at 62%; in test [5] (peptide 4 μM), 58%; in test [5] (peptide 8 μM), 54%; in test [5] (peptide 16 μM), 53%; in [5] (peptide 32 μM) it was 13%; in test [6] (peptide 2 μM), 97%. The Biofilm forming ability is listed as 74% in test [6] (peptide 4 μM); 40% in [6] (peptide 8 μM); 36% in test [6] (peptide 16 μM); 15% in [6] (peptide 32 μM); 42% in test [7] (peptide 2 μM); 39% in test [7] (peptide 4 μM). Moreover, the Biofilm forming ability in [7] (peptide 8 μM) was 33%; in test [7] (peptide 16 μM), 23%; in test [7] (peptide 32 μM), 10%. In test [8], the “antimicrobial activity after reaction with trypsin” value is “did not exhibit any antimicrobial activity”. For the same compound, the “effect on bacteria membrane” value in test [9] is given as “bacteria membrane was damaged”.

With `CC[C@H](C)[C@H](NC(=O)[C@H](CCCNC(=N)N)NC(=O)[C@H](CCC(N)=O)NC(=O)[C@@H](NC(=O)[C@@H](NC(=O)[C@H](CCCNC(=N)N)NC(=O)[C@H](CCCCN)NC(=O)[C@H](Cc1ccccc1)NC(=O)[C@H](CCC(=O)O)NC(=O)[C@@H](N)CCCCN)[C@@H](C)CC)C(C)C)C(=O)N[C@@H](CCCCN)C(=O)N[C@@H](CCCCN)C(=O)N[C@@H](Cc1ccccc1)C(=O)N[C@@H](CC(C)C)C(=O)N[C@@H](CCCNC(=N)N)C(=O)N[C@@H](CC(N)=O)C(N)=O` [LL37-3, KEFKRIVQRIKKFLRN-NH2] (H-KEFKRIVQRIKKFLRN-NH2; N-terminus assumed), the Minimal inhibitory concentration in test [1] came out at 4 µM (≈ 8.41 µg/mL); in test [2] it was 64 µM (≈ 135 µg/mL); in [3], 32 µM (≈ 67.3 µg/mL); in test [4] it was 8 µM (≈ 16.8 µg/mL). Moreover, the Biofilm forming ability in [5] (peptide 2 μM) stood at 61%; in [5] (peptide 4 μM), 38%; in [5] (peptide 8 μM) it was 34%; in [5] (peptide 16 μM), 32%; in test [5] (peptide 32 μM), 30%; in [6] (peptide 2 μM) it was 60%. Besides, the Biofilm forming ability in test [6] (peptide 4 μM) is 62%; in test [6] (peptide 8 μM) it was 26%; in test [6] (peptide 16 μM) it was 24%; in [6] (peptide 32 μM) it was 20%; in test [7] (peptide 2 μM) it was 52%; in test [7] (peptide 4 μM) it was 41%. Also, the Biofilm forming ability is on record as 29% in test [7] (peptide 8 μM), 25% in test [7] (peptide 16 μM) and 23% in test [7] (peptide 32 μM). The “effect on bacteria membrane” value in [9] is recorded as “bacteria membrane was damaged”.
